Measured values from patent US20240010646A1, “Urea Co-Crystal of Apixaban, and Preparation Method Therefor” (CHENGDU EASTON BIOPHARMACEUTICALS CO., LTD., priority 2021, published 2024).
Values after ≈ are worked out from the molar mass of the structure shown. Where two headings read alike, the source gives them in different places. One block for each compound: values may come before it.

Assays:
[1] = Stability test (high temperature, light irradiation, long-term and accelerated storage); assay type: physicochemical
[2] = Equilibrium solubility test (saturated solutions, external standard method); assay type: physicochemical
[3] = In vivo pharmacokinetic test in rat, single oral administration, plasma LC/MS/MS; design: species or system SD rats; conditions: for AUClast / Cl_F_obs / Cmax / MRT / T1/2 / Tmax / AUC(0-t) / half-life: corn oil suspension, 4 mL/kg
Protocol: 18 SD rats with 9 male rats and 9 female rats, weighing 220-240 g, purchased by Chengdu Ensiweier Biotechnology Co., Ltd. from Hunan SJA Laboratory Animal Co., Ltd, License: SCXK (Xiang) 2019-0004.
After the test drugs were prepared into […] uniform suspensions with corn oil, they were immediately administered orally to rats at 4 mL/kg, and 0.1 mL of blood was sampled from the jugular vein before the administration and 15 min, 30 min, 1 h, 2 h, 3 h, 4 h, 5 h, 6 h, 7 h, 8 h and 24 h after the administration, placed in EDTA-K2 tubes and centrifuged at 3000 r/min for 10 min. The plasma was separated and stored by freezing at −80° C. in refrigerator.
50 μL of plasma was taken and evenly mixed with 5 μL of working solution or blank diluent, 150 μL of the internal-standard acetonitrile-containing precipitant was added thereto, which was shaken with vortex for 2 min, and centrifuged at 12000 r/min for 10 min. 2 μL of Supernatant was taken and mixed with 200 μL of pure water: acetonitrile (1:1), and then the resultant sample was injected with a volume of 3 μL for analysis.

[4] = female rats, listed as The urea co-crystal A
[5] = male rats, listed as The urea co-crystal A
[6] = female rats, listed as Crystalline form N-1
[7] = female, Sprague-Dawley (SD), rat, plasma, po, 1.25 mg/kg, female rats
[8] = male, Sprague-Dawley (SD), rat, plasma, po, 1.25 mg/kg, male rats

Purity % ([1]; 25 ± 2° C., 60 ± 5% RH, 6 months): 99.92%
Purity % ([1]; 25 ± 2° C., 60 ± 5% RH, Start): 99.93%
Purity % ([1]; 40 ± 2° C., 75 ± 5% RH, 6 months): 99.92%
Purity % ([1]; 40 ± 2° C., 75 ± 5% RH, Start): 99.93%
Purity % ([1]; High Temperature (60° C.), 1 month): 99.92%
Purity % ([1]; High Temperature (60° C.), Start): 99.93%
Purity % ([1]; Light Irradiation, 1 month): 99.93%
Purity % ([1]; Light Irradiation, Start): 99.93%
Crystalline form stability ([1]; all study conditions): good crystalline form stability
solubility ([2]; hydrochloric acid pH 1.0 (0.1N), 25° C.): 48.62 µg/mL
solubility ([2]; hydrochloric acid pH 1.0 (0.1N), 37° C.): 57.33 µg/mL
solubility ([2]; phosphate buffer pH 6.8, 37° C.): 42.74 µg/mL
solubility ([2]; phosphate buffer, 25 °C, pH 6.8, aqueous buffer, thermodynamic from solid, phosphate buffer pH 6.8, 25° C., read-out: Solubility): 37.2 µg/mL
solubility ([2]; pure water, 25° C.): 55.78 µg/mL
solubility ([2]; pure water, 37° C.): 67.98 µg/mL
Increase of bioavailability compared with crystalline form N-1 ([3]; female rats): 21%
Increase of bioavailability compared with the urea co-crystal IV from HEC Pharm Co., Ltd ([3]; female rats): 44.98%
AUClast [3, 4]: 33636 ± 8113 ng·h/mL
Cl_F_obs [3, 4]: 7.2 ± 1.9 mL/day/kg
Cmax [3, 4]: 4653 ± 763 ng/mL
MRT [3, 4]: 5.55 ± 0.61 h
T1/2 [3, 4]: 4.49 ± 0.10 h
Tmax [3, 4]: 1.08 ± 0.72 h
Increase of bioavailability compared with crystal form N-1 ([3]; male rats): 29.36%
Increase of bioavailability compared with the urea co-crystal IV from HEC Pharm Co., Ltd ([3]; male rats): 49.94%
AUClast [3, 5]: 25567 ± 14447 ng·h/mL
Cl_F_obs [3, 5]: 10.8 ± 4.8 mL/day/kg
Cmax [3, 5]: 7970 ± 4475 ng/mL
MRT [3, 5]: 4.16 ± 0.41 h
T1/2 [3, 5]: 5.53 ± 2.98 h
Tmax [3, 5]: 1.00 ± 0.00 h
SMILES: COc1ccc(-n2nc(C(N)=O)c3c2C(=O)N(c2ccc(N4CCCCC4=O)cc2)CC3)cc1 [Co-crystal A]

solubility ([2]; hydrochloric acid (0.1N), 25 °C, pH 1, simulated gastric fluid, thermodynamic from solid, hydrochloric acid pH 1.0 (0.1N), 25° C., read-out: Solubility): 31.4 µg/mL (≈ 68.4 µM)
solubility ([2]; hydrochloric acid (0.1N), 37 °C, pH 1, simulated gastric fluid, thermodynamic from solid, hydrochloric acid pH 1.0 (0.1N), 37° C., read-out: Solubility): 38.4 µg/mL (≈ 83.6 µM)
solubility ([2]; phosphate buffer pH 6.8, 25° C.): 22.09 µg/mL (≈ 48.1 µM)
solubility ([2]; phosphate buffer, 37 °C, pH 6.8, aqueous buffer, thermodynamic from solid, phosphate buffer pH 6.8, 37° C., read-out: Solubility): 29.4 µg/mL (≈ 63.9 µM)
solubility ([2]; pure water, 25 °C, water, thermodynamic from solid, pure water, 25° C., read-out: Solubility): 36.7 µg/mL (≈ 79.8 µM)
solubility ([2]; pure water, 37 °C, water, thermodynamic from solid, pure water, 37° C., read-out: Solubility): 49.2 µg/mL (≈ 107 µM)
Cl_F_obs [3, 6]: 13.4 mL/day/kg
Tmax [3, 6]: 5.83 ± 3.75 h
AUC(0-t) [3, 7]: 27800 ± 13000 ng·h/mL
half-life [3, 7]: 6.83 h
Cmax ([3]; female, Sprague-Dawley (SD), rat, plasma, po, 1.25 mg/kg, female rats, read-out: Cmax): 2570 ± 999 ng/mL
MRT ([3]; female, Sprague-Dawley (SD), rat, plasma, po, 1.25 mg/kg, female rats, read-out: MRT): 7.37 ± 1.79 h
Cl_F_obs ([3]; male rats, listed as Crystalline form N-1): 15.4 ± 7.68 mL/day/kg
AUC(0-t) [3, 8]: 19800 ± 14000 ng·h/mL
half-life [3, 8]: 5.05 ± 1.43 h
Cmax ([3]; male, Sprague-Dawley (SD), rat, plasma, po, 1.25 mg/kg, male rats, read-out: Cmax): 4090 ± 3250 ng/mL
MRT ([3]; male, Sprague-Dawley (SD), rat, plasma, po, 1.25 mg/kg, male rats, read-out: MRT): 4.78 ± 0.75 h
Tmax ([3]; male, Sprague-Dawley (SD), rat, plasma, po, 1.25 mg/kg, male rats, read-out: Tmax): 1 ± 0.87 h
SMILES: COc1ccc(-n2nc(C(N)=O)c3c2C(=O)N(c2ccc(N4CCCCC4=O)cc2)CC3)cc1 [N-1, 1-(4-methoxyphenyl)-7-oxo-6-(4-(2-oxopiperidin-1-yl)phenyl)-4,5,6,7-tetrahydr o-1H-pyrazolo[3,4-c]pyridine-3-carboxamide, reference compound]
